Assay results reported in patent US9481885B2, “Methods and compositions related to miR-21 and miR-29a, exosome inhibition, and cancer metastasis” (Ohio State Innovation Foundation, priority 2011, dated 2016).

Target: T1, human TLR7 (Homo sapiens, UniProt Q9NYK1)
T1 construct: host or cells: HEK-Blue TLR7 293 (TLR7-HEK-293)
T1 sequence (Q9NYK1 27-1049): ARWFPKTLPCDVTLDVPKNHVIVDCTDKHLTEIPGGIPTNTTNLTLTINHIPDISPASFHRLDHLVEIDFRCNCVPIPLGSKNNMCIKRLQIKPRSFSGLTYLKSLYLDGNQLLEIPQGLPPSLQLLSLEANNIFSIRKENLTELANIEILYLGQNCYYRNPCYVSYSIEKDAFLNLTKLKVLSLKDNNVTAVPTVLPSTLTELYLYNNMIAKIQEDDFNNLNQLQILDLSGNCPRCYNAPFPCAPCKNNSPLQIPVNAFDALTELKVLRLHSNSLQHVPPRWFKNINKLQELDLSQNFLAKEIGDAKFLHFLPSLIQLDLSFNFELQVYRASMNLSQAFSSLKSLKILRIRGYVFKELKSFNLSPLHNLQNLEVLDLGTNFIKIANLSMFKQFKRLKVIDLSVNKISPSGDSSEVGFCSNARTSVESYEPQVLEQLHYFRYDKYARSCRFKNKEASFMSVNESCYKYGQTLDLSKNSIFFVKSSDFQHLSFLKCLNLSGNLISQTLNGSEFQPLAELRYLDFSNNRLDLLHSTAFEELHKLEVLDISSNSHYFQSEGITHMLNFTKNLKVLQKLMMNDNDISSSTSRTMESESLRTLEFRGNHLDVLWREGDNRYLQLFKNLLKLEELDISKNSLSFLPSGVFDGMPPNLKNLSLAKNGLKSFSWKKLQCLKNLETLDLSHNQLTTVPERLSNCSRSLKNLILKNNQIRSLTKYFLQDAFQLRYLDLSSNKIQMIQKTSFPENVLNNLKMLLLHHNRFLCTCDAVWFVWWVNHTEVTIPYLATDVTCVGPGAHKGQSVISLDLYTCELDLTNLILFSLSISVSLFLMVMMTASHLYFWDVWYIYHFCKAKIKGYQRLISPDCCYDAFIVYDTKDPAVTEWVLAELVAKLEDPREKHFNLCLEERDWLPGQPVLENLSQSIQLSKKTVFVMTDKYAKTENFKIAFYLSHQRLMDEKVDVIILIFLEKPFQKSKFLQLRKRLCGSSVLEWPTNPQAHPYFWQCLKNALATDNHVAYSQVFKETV
Test: NF-κB reporter assay (QUANTI-Blue) in TLR7-HEK-293 cells
Assay type: cell-based
Details: Dotap formulations of miRNA
Procedure: To investigate whether miRNA-induced activation of TLRs also occurs in human cells, an NF-κB reporter assay was performed in HEK-293 cells. NF-κB, a transcription factor modulating the expression of several cytokine genes, is activated by several TLRs, including the only ssRNA-binding human TLRs, TLR7 and TLR8. Therefore, we treated HEK-293 cells expressing human TLR7 or TLR8 (hereafter, TLR7- and TLR8-HEK-293 cells, respectively) with Dotap alone or with Dotap formulations of miR-16, -21, -29a, or -147 and performed an NF-κB reporter assay. As positive controls Gardiquimod and ssRNA40 were used, specific agonists of TLR7 and TLR8, respectively. […] To confirm this conclusion, transfected were TLR8-HEK-293 cells with a plasmid encoding a dominant negative form of TLR8 (TLR8DN) and treated these cells with the miRNAs of interest. In TLR8DN cells, the activation of NF-κB by miR-21 and miR-29a was abolished (FIG. 3F). […] NF-κB activity was assessed by QUANTI-Blue Assay (Invivogen). […] Levels of SEAP can be easily determined with QUANTI-Blue, a detection medium that turns purple/blue in the presence of alkaline phosphatase. […] The plate was then incubated at 37° C. for 1-3 h and SEAP levels were determined by reading the plate with a spectrophotometer at 620-655 nm (SpectraMax, Molecular Devices).

“miR-147: synthetic mature miRNA (SEQ ID NO: 3), sequence similar to RNA33, Dotap formulation (GUGUGUGGAAAUGCUUCUGC; DOTAP formulation, further chemistry not given here)” was tested, and the NF-κB activation was “only in TLR8-HEK-293 cells”.
